Test results reported in PubChem BioAssay AID2060906 (Molecular Pharmacology Branch, DTP, NCI, 2025).

Tested on: 485176-168-R4-J1-PDC complex spheroid growth
Assay: Anticancer human tumor 485176-168-R4-J1-PDC patient-derived pancreatic adenocarcinoma cell line growth inhibition [RAS]
Details: for IC50: curve of first compound; for viability, T/C: stronger effect = lower value; active = viability on the fitted dose curve at most 10% of control; inactive = the rest
Method in brief: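 Tumour cells grown as complex spheroids with HUVEC endothelial cells and mesenchymal stem cells, treated with RAS pathway inhibitor combinations. Each agent spans half-log steps from near clinical Cmax, or 10 microM where Cmax is unknown.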
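Note: spheroids exposed to compounds for seven days before readout.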
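Throughout, for viability, T/C: luminescence viability expressed relative to DMSO vehicle wells set as 100%.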

CC(C)NCC(C(=O)N1CCN(c2ncnc3c2C(C)CC3O)CC1)c1ccc(Cl)cc1 (configuration not stated) + C=CC(=O)N1CCN(c2nc(OCC3CCCN3C)nc3c(F)c(-c4nc(N)cc(C)c4C(F)(F)F)c(Cl)cc23)C(C)C1
inactive: viability, T/C (second compound 0.00316 µM, first compound 0.0316 µM) 93.7% | viability, T/C (second compound 0.00316 µM, first compound 0.1 µM) 97.9% | viability, T/C (second compound 0.00316 µM, first compound 0.316 µM) 78% | viability, T/C (second compound 0.00316 µM, first compound 1 µM) 57.4% | viability, T/C (second compound 0.00316 µM, first compound 3.16 µM) 42.8% | viability, T/C (second compound 0.00316 µM, first compound 10 µM) 35.3% | viability, T/C (second compound 0.01 µM, first compound 0.0316 µM) 104% | viability, T/C (second compound 0.01 µM, first compound 0.1 µM) 83.3% | viability, T/C (second compound 0.01 µM, first compound 0.316 µM) 79% | viability, T/C (second compound 0.01 µM, first compound 1 µM) 62.4% | viability, T/C (second compound 0.01 µM, first compound 3.16 µM) 43.8% | viability, T/C (second compound 0.01 µM, first compound 10 µM) 34.2% | viability, T/C (second compound 0.0316 µM, first compound 0.0316 µM) 101% | viability, T/C (second compound 0.0316 µM, first compound 0.1 µM) 83.5% | viability, T/C (second compound 0.0316 µM, first compound 0.316 µM) 70.7% | viability, T/C (second compound 0.0316 µM, first compound 1 µM) 53.2% | viability, T/C (second compound 0.0316 µM, first compound 3.16 µM) 45.3% | viability, T/C (second compound 0.0316 µM, first compound 10 µM) 30.5% | viability, T/C (second compound 0.1 µM, first compound 0.0316 µM) 109% | viability, T/C (second compound 0.1 µM, first compound 0.1 µM) 82.7% | viability, T/C (second compound 0.1 µM, first compound 0.316 µM) 69.2% | viability, T/C (second compound 0.1 µM, first compound 1 µM) 55% | viability, T/C (second compound 0.1 µM, first compound 3.16 µM) 45.2% | viability, T/C (second compound 0.1 µM, first compound 10 µM) 29.9% | viability, T/C (second compound 0.316 µM, first compound 0.0316 µM) 106% | viability, T/C (second compound 0.316 µM, first compound 0.1 µM) 102% | viability, T/C (second compound 0.316 µM, first compound 0.316 µM) 79.3% | viability, T/C (second compound 0.316 µM, first compound 1 µM) 65.2% | viability, T/C (second compound 0.316 µM, first compound 3.16 µM) 46.1% | viability, T/C (second compound 0.316 µM, first compound 10 µM) 27.3% | viability, T/C (second compound 1 µM, first compound 0.0316 µM) 108% | viability, T/C (second compound 1 µM, first compound 0.1 µM) 93.9% | viability, T/C (second compound 1 µM, first compound 0.316 µM) 79.1% | viability, T/C (second compound 1 µM, first compound 1 µM) 50.5% | viability, T/C (second compound 1 µM, first compound 3.16 µM) 41% | viability, T/C (second compound 1 µM, first compound 10 µM) 28.9%
1340 nM: IC50 (second compound 1 µM)
2420 nM: IC50 (second compound 0.01 µM)
1690 nM: IC50 (second compound 0.00316 µM)
2370 nM: IC50 (second compound 0.316 µM)
1540 nM: IC50 (second compound 0.1 µM)
1630 nM: IC50 (second compound 0.0316 µM)
